# B1: ANGPL7: Angiopoietin-Like Protein 7, included in the culture media with DKK2 and PDGFB (protein, UniProt O43827 27-346, looked up)
# Angiopoietin-related protein 7: QKLSKHKTPAQPQLKAANCCEEVKELKAQVANLSSLLSELNKKQERDWVSVVMQVMELESNSKRMESRLTDAESKYSEMNNQIDIMQLQAAQTVTQTSADAIYDCSSLYQKNYRISGVYKLPPDDFLGSPELEVFCDMETSGGGWTIIQRRKSGLVSFYRDWKQYKQGFGSIRGDFWLGNEHIHRLSRQPTRLRVEMEDWEGNLRYAEYSHFVLGNELNSYRLFLGNYTGNVGNDALQYHNNTAFSTKDKDNDNCLDKCAQLRKGGYWYNCCTDSNLNGVYYRLGEHNKHLDGITWYGWHGSTYSLKRVEMKIRPEDFKP
# Assays:
# hESC-derived CEC = experiment: Effect of ROCK inhibitor on harvested and replated hESC-derived CEC; format: cell-based, human; parameters: key to O/N Confluent: +: “O/N confluent” indicates the confluence of cultured cells after overnight plating, reflecting the degree of cell survival and/or attachment.; −: “O/N confluent” indicates the confluence of cultured cells after overnight plating, reflecting the degree of cell survival and/or attachment; key to Morphology: a high quality polygonal/hexagonal cell shape (“++”); a polygonal/hexagonal shape (“+”); fibroblastic morphology (“−”); key to COL8A1 mRNA / AQP1 mRNA / SLC16A3 mRNA: expression (“+”); non-expression (“−”)
# Experimental: Expression of COL8A1 and SLC16A3 were elevated relative to hESC (FIGS. 17E-17F).
# The harvested cells were further examined for morphology, ability to reestablished a confluent culture, and retaining expression of the CEC markers COL8A1, AQP1, and SLC16A by qPCR. […] Moreover, Maintenance with media containing ROCK inhibitor can help the cells maintain a high quality CEC morphology after harvesting and replating.
# Rock inhibitor […] (Wako, cat #253-00513) was dissolved in distilled H2O to make a 10 mM stock solution and sterile filtered and aliquoted. Rock inhibitor aliquot was thawed and added fresh to media daily.
# Cornea cells were grown as described in Example 2 and harvested by treatment with 0.25% Trypsin as described in Example 4 and replated, with variations (i.e., inclusion of ROCK inhibitor and/or ASC as described below).
# After plating, cells were viewed to identify any morphological changes, and specifically whether they regained their polygonal/hexagonal shape, were a mixed population of polygonal and fibroblastic shape, or if they had turned fibroblastic.
# Media was changed daily with fresh Rock inhibitor except for “Pretreatment” and “D1” paradigms. After 1 week of culture, RNA was collected and analyzed by QPCR for changes in COL8A1, AQP1, and SLC16A3 mRNA levels. The efficacy of the Rock inhibitor for harvesting cells were tested between 1-20 microM.
# For the “Pretreatment” paradigm, CEC were produced as described in Example 2. The cornea media was removed and replaced with either 10 microM Rock or 10 microM Rock with 0.3 mM ASC-P2 (L ascorbic acid phosphate magnesium salt n-hydrate (Wako, cat #013-19641)) for 1 hour before harvesting. Cells were harvested using 0.25% trypsin as described above, however, no Rock inhibitor was added during harvesting.
# For the “Rock overnight” paradigm, CEC were produced as described in Example 2, harvested with 0.25% trypsin as described above, and then plated overnight in the presence of 10 microM Rock inhibitor. The following morning, the media was removed, and no further Rock inhibitor was added to the media.
# For the “Rock maintenance” paradigm, CEC were produced as described in Example 2, harvested using 0.25% trypsin as described above, and were maintained in Rock inhibitor added daily to fresh media.
# For the “D1” paradigm, CEC were produced as described in Example 2, harvested using 0.25% trypsin as described above, and cultured in presence of Rock inhibitor for 1 week. Cornea cells were then grown for additional week in the presence or absence of Rock inhibitor, to determine whether the ROCK inhibitor contributed to the maintenance of their morphology.
# CEC = experiment: ANGPL7 included in culture media during CEC differentiation; format: cell-based, human; conditions: in culture media in combination with DKK2 and PDGFB; methods of Example 1
# Excerpt: Accordingly, ANGPL7 may optionally be used in the differentiation of corneal endothelial cells, for example by its inclusion in the culture during and/or after formation of corneal endothelial cells. ANGPL1-8 may be used in place of or in addition to ANGPL7.
# [1] = D1: factors in media for the first week after plating, thereafter omitted
molecule,measurement,setting,value
"C[C@@H](N)[C@H]1CC[C@H](C(=O)Nc2ccncc2)CC1 [Rock, (1R,4r)-4-((R)-1-aminoethyl)-N-(pyridin-4-yl)cyclohexanecarboxamide]",morphology of the hESC CEC trypsinized and replated,"hESC-derived CEC; 1 μM Rock inhibitor, FIG. 17A",variable
same,morphology of the hESC CEC trypsinized and replated,"hESC-derived CEC; 5 μM Rock inhibitor, FIG. 17B",somewhat more uniform
same,morphology of the hESC CEC trypsinized and replated,"hESC-derived CEC; 10 μM Rock inhibitor, FIG. 17C",uniform and polygonal/hexagonal
same,morphology of the hESC CEC trypsinized and replated,"hESC-derived CEC; 20 μM Rock inhibitor, FIG. 17D",uniform and polygonal/hexagonal
same,SLC16A3 expression compared to PD1T that has not been harvested,"hESC-derived CEC; 20 μM Rock inhibitor, QPCR",unchanged
same,SLC16A3 expression compared to PD1T that has not been harvested,"hESC-derived CEC; 1-10 μM Rock inhibitor, QPCR",upregulated
same,O/N Confluent,"hESC-derived CEC; 1 microM (maint.), in media each day after plating",+
same,AQP1 mRNA,"hESC-derived CEC; 1 microM (maint.), QPCR",+
same,COL8A1 mRNA,"hESC-derived CEC; 1 microM (maint.), QPCR",+
same,SLC16A3 mRNA,"hESC-derived CEC; 1 microM (maint.), QPCR",+
same,Morphology,"hESC-derived CEC; 1 microM (maint.), after 1 week in culture",+
same,O/N Confluent,hESC-derived CEC; 5 microM (maint.),+
same,AQP1 mRNA,"hESC-derived CEC; 5 microM (maint.), QPCR",+
same,COL8A1 mRNA,"hESC-derived CEC; 5 microM (maint.), QPCR",+
same,SLC16A3 mRNA,"hESC-derived CEC; 5 microM (maint.), QPCR",+
same,Morphology,"hESC-derived CEC; 5 microM (maint.), after 1 week in culture",++
same,O/N Confluent,"hESC-derived CEC; 10 microM (maint.), ASC 0.3 mM where added",+
same,AQP1 mRNA,"hESC-derived CEC; 10 microM (maint.), QPCR",+
same,COL8A1 mRNA,"hESC-derived CEC; 10 microM (maint.), QPCR",+
same,SLC16A3 mRNA,"hESC-derived CEC; 10 microM (maint.), QPCR",+
same,Morphology,"hESC-derived CEC; 10 microM (maint.), after 1 week in culture",++
same,O/N Confluent,"hESC-derived CEC; 20 microM (maint.), ASC 0.3 mM where added",+
same,AQP1 mRNA,"hESC-derived CEC; 20 microM (maint.), QPCR",+
same,COL8A1 mRNA,"hESC-derived CEC; 20 microM (maint.), QPCR",+
same,SLC16A3 mRNA,"hESC-derived CEC; 20 microM (maint.), QPCR",+
same,Morphology,"hESC-derived CEC; 20 microM (maint.), after 1 week in culture",++
same,Morphology,hESC-derived CEC; [1],−
same,O/N Confluent,hESC-derived CEC; [1],+
same,O/N Confluent,"hESC-derived CEC; Pretreat: 10 microM Rock 1 hour before harvesting with 0.25% trypsin, ASC 0.3 mM where added",−
same,Morphology,"hESC-derived CEC; Pretreat: 10 microM Rock 1 hour before harvesting, after 1 week in culture",−
same,AQP1 mRNA,"hESC-derived CEC; Pretreat, QPCR after 1 week",+
same,COL8A1 mRNA,"hESC-derived CEC; Pretreat, QPCR after 1 week",+
same,SLC16A3 mRNA,"hESC-derived CEC; Pretreat, QPCR after 1 week",+
same,COL8A1 expression compared to PD1T that has not been harvested,"hESC-derived CEC; QPCR, FIG. 17E",relatively unchanged
same,cell uniformity and polygonal/hexagonal morphology,"hESC-derived CEC; concentrations up to 20 micromolar, FIGS. 17A-17D",dose-responsive improvement
same,O/N Confluent,"hESC-derived CEC; o/n: plated overnight with 10 microM Rock after harvest, ASC 0.3 mM where added",+
same,Morphology,"hESC-derived CEC; o/n: plated overnight with 10 microM Rock, after 1 week in culture",+
same,AQP1 mRNA,"hESC-derived CEC; o/n, QPCR after 1 week",+
same,COL8A1 mRNA,"hESC-derived CEC; o/n, QPCR after 1 week",+
same,SLC16A3 mRNA,"hESC-derived CEC; o/n, QPCR after 1 week",+
B1,packing and morphology of the resulting CEC,CEC,tighter packing and more hexagonal morphology

# — patent publication US12049642B2, “Corneal endothelial cells with increased cell density and compositions thereof” (Astellas Institute for Regenerative Medicine, priority 2011, dated 2024)
